Measurements: patent US8603976B2, “Methods of enhancing functioning of the large intestine” (1149336 Ontario, Inc., priority 1997, dated 2013)

Experiments:
Type in all cases: in vivo
Female CD1 mice [1] = assay: 5% dextran sulfate induced ulcerative colitis model in mice (Example 2)
Text: This experiment was designed to test the activity of GLP-2 in ameliorating disease symptoms in an animal model of colitis. A 5% dextran sulfate solution was used to induce ulcerative colitis in test mice (Okayasu et al., 1990, 98:694-702).
Forty female CD1 mice (six-weeks old and approximately 25 g, obtained from Charles River) were used in the experiment. On day 1, the mice were weighed using a Mettler PJ300 scale and randomly allocated to 1 of eight treatment groups. The groups, each consisting of 5 mice housed together, were treated as follows:
These two groups were fed normal drinking water.
Group 1) Ten days of injections (PBS), day 7 to day 17, animals sacrificed day 17.
Group 2) Ten days of injections human (Gly 2) GLP-2 (2.5 μg bid), day 7 to day 17, animals sacrificed day 17.
Groups 3 and 4—Test Group
Drinking water given to these groups contained 5% Dextran sulfate (DS).
Group 3) DS given from day 7 to day 17, PBS injections given from day 7 to day 17, animals sacrificed day 17.
Group 4) DS given from day 7 to day 17, human[Gly^2] GLP-2 (2.5 μg bid) injections given day 7 to day 17, animals sacrificed day 17.
Groups 5 and 6—Test Group
Drinking water contained 5% Dextran sulfate day 2 to day 9, followed by 4 days of normal drinking water. Ten days of injections were started day 4. […]
Dextran sulfate (USB, Cleveland, Ohio, MW 40,000-50,000) was dissolved into double distilled water, and placed into the water bottles. Water bottles were topped up daily. GLP-2 peptide was reconstituted and aliquoted on the day prior to the first day of injection and kept in a −20 C. freezer. Human [Gly^2]GLP-2 (5 mg/mL) was reconstituted in PBS. One microliter of 5N NaOH was required to dissolve the peptide in a volume of 1 ml. The injection volume of 0.5 ml was constant throughout the experiment using ½ cc U-100 Insulin Syringes Becton Dickinson and Company, NJ). Control mice (cage 1) received the same volume (0.5 ml) of phosphate buffered saline (PBS—137 mM NaCl, 2.7 mM KCl, 4.3 mM Na2HPO4.7H2O, 1.4 mM KH2PO4, pH 7.3).
Subcutaneous injections in the right hind quarter began on various days depending on the treatment conditions given above. All injections were twice a day, at 8 am and 6 pm. Mice in cages 1 and 2 were fasted on the day prior to sacrifice. Body weight measurements were made on day 1, day 7, day 12 and the day of sacrifice. The weight and length of the large intestine of each animal was measured after sacrifice.

mice = assay: Mortality in mice exposed to 10% colitis-inducing dextran sulfate (Example 3); details: 10% dextran sulfate in drinking water, 2.5 μg per injection s.c. twice per day, after 9 days; saline group 3 of 10
Procedure: Mice were also treated with 2 subcutaneous injections per day (0.5 ml) of either saline, or [GLY^2]hGLP-2, 2.5 μg per injection. After 9 days, the experiment was stopped.

Female CD1 mice [2] = assay: Effect of GLP-2 on small and large intestinal mass and protein content in mice (Example 1); details: 2.5 μg twice daily subcutaneously for 10 days
Procedure: In this experiment, the effect of GLP-2 on both small and large intestinal mass, as well as the relative contribution of water to the increment in intestine weight, was examined.
Female CD1 mice (6 weeks old) were treated with rat GLP-2, 2.5 μg twice daily (subcutaneously) for 10 days. Following treatment, mice were fasted 24 hours, anesthetized with CO2 and sacrificed. The small and large intestine was removed from the peritoneal cavity (from pylorus to cecum), cleaned, weighed and measured. For comparative purposes, 2 cm segments of proximal jejunum, ileum and colon were obtained from each animal from the identical anatomical positions (as measured from the pylorus and cecum) and analyzed for protein content, wet weight and dry weight (expressed as mean±S.E.M in mg/2 cm segment).
For protein content, two 2 cm segments from the proximal jejunum, ileum and colon were removed, placed in 13 ml tubes containing 2 ml of PBS, homogenized for 20 seconds in a Brinkmann Homogenizer and placed on ice. The tubes were centrifuged for 5 min. at 1000 g and 100 μl aliquots of supernatant homogenate removed for determination of protein content using the modified Bradford method.
To measure wet and dry weight, 2 cm intestinal segments were weighed, placed in culture tubes, reweighed, then freeze-dried overnight in a Fast-Freeze flask (Labconco) and reweighed.

[3] = 5% DS day 7 to day 17, 2.5 μg bid s.c. day 7 to day 17, group 4 vs group 3 (PBS)
[4] = normal drinking water, 2.5 μg bid s.c. for ten days, group 2 vs group 1 (PBS)
[5] = 2 cm segment, vs PBS-treated mice, p<0.05

| Substance | body weight through the course of the experiment (Female CD1 mice [1]; [3]) | large intestine weight at sacrifice (Female CD1 mice [1]; [3]) | large intestine length during experimentally induced colitis (Female CD1 mice [1]; 5% DS day 7 to day 17, 2.5 μg bid s.c., group 4 vs group 3 (PBS)) | morbidity, dehydration and reduction in mass of the large intestine caused by induced colitis (Female CD1 mice [1]; agonist given at the same time as 5% DS, day 7 to day 17, group 4 vs group 3) | large intestine length (Female CD1 mice [1]; [4]) | post-treatment large intestinal mass (Female CD1 mice [1]; [4]) | survival (mice) | dry weight of intestinal segments from the proximal jejunum (Female CD1 mice [2]; [5]) | wet weight of intestinal segments from the proximal jejunum (Female CD1 mice [2]; [5]) | weights of the segments obtained from the colon (Female CD1 mice [2]; 2 cm segment, wet and dry weight) | protein content in the colon (Female CD1 mice [2]; compared to PBS-treated mice) | protein content in the jejunum (Female CD1 mice [2]; compared to PBS-treated mice) |
| --- | --- | --- | --- | --- | --- | --- | --- | --- | --- | --- | --- | --- |
| [Gly^2]hGLP-2: human GLP-2 wherein the alanine at position 2 is replaced by a glycine; DPP-IV resistant analog (HGDGSFSDEMNTILDNLAARDFINWLIQTKITD; Glucagon-like peptide 2; UniProt P01275 146-178, looked up, variant A2G) | maintain body weight better | significantly heavier large intestines | also exhibited, although to a lesser degree | ameliorates the severe morbidity, dehydration, and reduction in mass of the large intestine | significant increase in large intestine length | causes an increase in large intestinal mass | 7 of 10 |  |  |  |  |  |
| rat GLP-2: rat GLP-2, 33 amino acid peptide having the sequence SEQ ID NO: 2; used in Example 1 (HADGSFSDEMNTILDNLATRDFINWLIQTKITD; listed as Rattus sp.) |  |  |  |  |  |  |  | significantly increased | significantly increased | slightly, but consistently, increased | statistically significant increase | statistically significant increase |
